The text below walks through data of patent US4393228A, “Epoxysuccinic acid derivatives” (Taisho Pharmaceutical Co., Ltd., priority 1977, dated 1983).

One assay addresses T1, papain (Carica papaya, UniProt P00784).
T1 construct: purchased Sigma Chem. Co
T1 sequence (P00784 134-345): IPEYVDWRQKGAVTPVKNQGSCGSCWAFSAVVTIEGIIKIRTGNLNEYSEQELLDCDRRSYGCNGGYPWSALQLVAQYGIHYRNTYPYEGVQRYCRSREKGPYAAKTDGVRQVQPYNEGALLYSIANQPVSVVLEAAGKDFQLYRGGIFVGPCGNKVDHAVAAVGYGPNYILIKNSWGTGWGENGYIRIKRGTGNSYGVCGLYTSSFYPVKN
Put plainly: Papain inhibitory activity (milk casein digestion). The assay is classed as biochemical. The following applies: papain 80 μg/ml 0.5 ml, cysteine, pH 6.8, 1% milk casein, 40° C., 10 minutes. The method in brief: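 Papain (80 μg/ml stock) preincubated 15 min at 40 °C with inhibitor, cysteine/EDTA activator and phosphate buffer pH 6.8. Then 1% milk casein digested 10 min at 40 °C, stopped with trichloroacetic acid and filtered; filtrate absorbance at 280 nm gives percent inhibition versus no-inhibitor control.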

Assay [1] concerns adjuvant induced polyarthritis. Put plainly: Inhibition of adjuvant induced polyarthritis in rats (hind paw volume). Type of assay: in vivo, Sprague Dawley rat. Conditions: Rattus norvegicus, 100 mg/kg of body weight, daily oral. As for the experimental part: Effect of the compounds of this invention on the development of adjuvant-induced polyarthritis in rats was assayed as follows: Adjuvant arthritis was produced by a single intracutaneous injection of 0.1 ml of the adjuvant mixture containing heat-killed mycobacteria of the human Aoyama B strain suspended in liquid paraffin in 0.6% in the middle part of the distal tail of Sprague Dawley rat (female, 8 weeks old). […] The activity was measured as the mean inhibition percent for the increase of the hind paw volume of the 8 rats/group on the days 17 and 23 on which the legs become inflamed and reach maximum volumes. The compound Nos. in Table 2 are as defined in Examples as described hereinafter.

Where [2] appears, read: 408 h, day 17, read-out: Inhibition % 17 days (increase of hind paw volume).
The mark [3] stands for this setting: 552 h, day 23, read-out: Inhibition % 23 days (increase of hind paw volume).

Counter-ions that a name gives are not always drawn. Like-named read-outs stand apart in the source and are kept apart here.

`O=C(OC1CCCCC1)[C@@H]1O[C@H]1C(=O)OC1CCCCC1` (relative stereo) [EP-1, dicyclohexyl epoxysuccinate]: the “ID50 (amount of inhibitor for 50% inhibition)” value on papain is 1.98 γ. Besides, the inhibition in vivo at 100 mg/kg in assay [1] (setting [2]) was 82.1%; in assay [1] (setting [3]) it was 77%. The corresponding values for `O=C(O)[C@@H]1O[C@H]1C(=O)OC1CCCCC1` (relative stereo) [EP-2, cyclohexyl potassium epoxysuccinate] are 0.07 γ, 43.2% and 50%. `C[C@H]1CC[C@@H](OC(=O)[C@@H]2O[C@H]2C(=O)O[C@H]2CC[C@@H](C)CC2)CC1` (relative stereo) [EP-17, di-4'-cis-methylcyclohexyl epoxysuccinate]: the “ID50 (amount of inhibitor for 50% inhibition)” value at papain was 1.79 γ. Further, the inhibition in vivo at 100 mg/kg in assay [1] (setting [2]) was determined as 100%; in assay [1] (setting [3]), 78.7%. As for `O=C(OC1CCCC1)[C@@H]1O[C@H]1C(=O)OC1CCCC1` (relative stereo) [EP-25, dicyclopentyl epoxysuccinate], at papain, the “ID50 (amount of inhibitor for 50% inhibition)” value is 3.03 γ. Also, the results for the inhibition in vivo at 100 mg/kg in assay [1] (setting [2]) and in assay [1] (setting [3]) were 52.6% and 77.8%, respectively.

Turning to `O=C(O)[C@@H]1O[C@H]1C(=O)OC1CCCC1` (relative stereo) [EP-26, cyclopentyl potassium epoxysuccinate], on papain, the “ID50 (amount of inhibitor for 50% inhibition)” value is recorded as 0.08 γ. Besides, the figures for the inhibition in vivo at 100 mg/kg in assay [1] (setting [2]) and in assay [1] (setting [3]) were 52% and 55.5%, respectively. Take `CCOC(=O)[C@@H](NC(=O)C1OC1C(=O)OC)[C@@H](C)O` (stereo partly drawn) [EP-190, N-(3-methoxycarbonyloxirane-2-carbonyl)-L-threonine ethyl ester]: the “ID50 (amount of inhibitor for 50% inhibition)” value on papain was 17.13 γ.

As for `O=C(N[C@@H](CSCc1ccccc1)C(=O)OCc1ccccc1)C1OC1C(=O)OCc1ccccc1` (stereo partly drawn) [EP-191, N-(3-benzyloxycarbonyloxirane-2-carbonyl)-S-benzyl-L-cysteine benzyl ester], the “ID50 (amount of inhibitor for 50% inhibition)” value on papain is recorded as 5.51 γ. Turning to `CCOC(=O)C1OC1C(=O)N[C@@H](C)C(=O)OC(C)(C)C` (stereo partly drawn) [EP-192, N-(3-ethoxycarbonyloxirane-2-carbonyl)-L-alanine-t-butyl ester], on papain, the “ID50 (amount of inhibitor for 50% inhibition)” value is reported as 40.50 γ. For the compound `CCOC(=O)C1OC1C(=O)N[C@@H](CC(=O)OCc1ccccc1)C(=O)OCc1ccccc1` (stereo partly drawn) [EP-193, N-(3-ethoxycarbonyloxirane-2-carbonyl)-L-aspartic acid dibenzyl ester], at papain, the “ID50 (amount of inhibitor for 50% inhibition)” value was 20.50 γ. For the compound `CCOC(=O)C1OC1C(=O)N[C@@H](CC(N)=O)C(=O)OCc1ccccc1` (stereo partly drawn) [EP-194, N-(3-ethoxycarbonyloxirane-2-carbonyl)-L-asparagine benzyl ester], the “ID50 (amount of inhibitor for 50% inhibition)” value at papain is 22.60 γ. In the case of `CCOC(=O)[C@H](CCCCNC(=O)OCc1ccccc1)NC(=O)C1OC1C(=O)[O-].[K+]` (stereo partly drawn) [EP-195, N^α -(3-carboxyoxirane-2-carbonyl)-N^ε -carbobenzoxy-L-lysine ethyl ester potassium salt], the “ID50 (amount of inhibitor for 50% inhibition)” value on papain is 0.43 γ. On the same count and under the same terms, as for `O=C(NCCC[C@H](NC(=O)C1OC1C(=O)O)C(=O)OCc1ccccc1)OCc1ccccc1` (stereo partly drawn) [EP-196, N^α -(3-carboxyoxiane-2-carbonyl)-N^δ -carbobenzoxy-L-ornithine benzyl ester potassium salt], the figure is 0.11 γ; as for `O=C(NCCCC[C@H](NC(=O)C1OC1C(=O)[O-])C(=O)OCc1ccccc1)OCc1ccccc1.[K+]` (stereo partly drawn) [EP-197, N^α -(3-carboxyoxirane-2-carbonyl)-N^ε -carbobenzoxy-L-lysine benzyl ester potassium salt], 0.98 γ; as for `COC(=O)[C@H](CCCNC(=O)OCc1ccccc1)NC(=O)C1OC1C(=O)[O-].[K+]` (stereo partly drawn) [EP-198, N^α -(3-carboxyoxirane-2-carbonyl)-N^δ -carbobenzoxy-L-ornithine methyl ester potassium salt], 0.15 γ. Consider `CCCCOC(=O)[C@H](CCCNC(=O)OCc1ccccc1)NC(=O)C1OC1C(=O)[O-].[K+]` (stereo partly drawn) [EP-199, N^α -(3-carboxyoxirane-2-carbonyl)-N^δ -carbobenzoxy-L-ornithine n-butyl ester potassium salt], for which the “ID50 (amount of inhibitor for 50% inhibition)” value on papain is 0.14 γ. Still for that read-out and setting: as for `COC(=O)[C@H](CCCNC(=N)N)NC(=O)C1OC1C(=O)O` (stereo partly drawn) [EP-200, N-(3-carboxyoxirane-2-carbonyl)-L-arginine methyl ester], the figure is 0.88 γ; as for `CCOC(=O)C1OC1C(=O)N[C@@H](CCCCN)C(=O)O` (stereo partly drawn) [EP-201, N-(3-ethoxycarbonyloxirane-2-carbonyl)-L-lysine], 25.51 γ; as for `N=C(N)NCCC[C@H](NC(=O)C1OC1C(=O)O)C(=O)O` (stereo partly drawn) [EP-202, N-(3-carboxyoxirane-2-carbonyl)-L-arginine], 21.93 γ. As to `CCOC(=O)[C@H](CC(C)C)NC(=O)C1OC1C(=O)OCCCC1CCCC1` (stereo partly drawn) [EP-203, N-[3-(3'-cyclopentylpropyloxy)carbonyloxirane-2-carbonyl]-L-leucine ethyl ester], the “ID50 (amount of inhibitor for 50% inhibition)” value on papain is 0.12 γ. As for `O=C(NCCCC[C@H](NC(=O)C1OC1C(=O)OC1CC1)C(=O)OCc1ccccc1)OCc1ccccc1` (stereo partly drawn) [EP-204, N^α -(3-cyclopropyloxycarbonyloxirane-2-carbonyl)-N^ε-carbobenzoxy-L-lysine benzyl ester], at papain, the “ID50 (amount of inhibitor for 50% inhibition)” value was 15.20 γ. Still for that read-out and setting: as for `CC(C)[C@H](NC(=O)C1OC1C(=O)OC1CCCC1)C(=O)OCc1ccccc1` (stereo partly drawn) [EP-205, N-(3-cyclopentyloxycarbonyloxirane-2-carbonyl)-L-valine benzyl ester], the figure is 0.82 γ; as for `CC(OC(=O)C1OC1C(=O)N[C@@H](CCCCN)C(=O)OCc1ccccc1)C1CCCC1` (stereo partly drawn) [EP-206, N-[3-(1'-cyclopentylethoxy)-carbonyloxirane-2-carbonyl]-L-lysine benzyl ester], 0.12 γ; as for `O=C(CC[C@H](NC(=O)C1OC1C(=O)OC1CCCCCCC1)C(=O)OCc1ccccc1)OCc1ccccc1` (stereo partly drawn) [EP-209, N-(3-cyclooctyloxycarbonyloxirane-2-carbonyl)-L-glutamic acid dibenzyl ester], 2.45 γ. The same measure, in the same setting: as for `CCOC(=O)[C@H](Cc1ccccc1)NC(=O)C1OC1C(=O)OC1C2CC3CC(C2)CC1C3` (stereo partly drawn) [EP-210, N-[3-(2'-adanatyloxy)-carbonyloxirane-2-carbonyl]-L-phenyl alanine ethyl ester], the figure is 1.12 γ. In the case of `O=C(N[C@@H](Cc1ccc(O)cc1)C(=O)OCc1ccccc1)C1OC1C(=O)OCC1CC=CCC1` (stereo partly drawn) [EP-211, N-[3-(3'-cyclohexen-1-yl)-methoxycarbonyloxirane-2-carbonyl]-L-tyrosine benzyl ester], at papain, the “ID50 (amount of inhibitor for 50% inhibition)” value is on record as 0.61 γ. Still for that read-out and setting: as for `CCOC(=O)[C@H](Cc1ccccc1)NC(=O)C1OC1C(=O)OC1CCCCC1C` (stereo partly drawn) [EP-212, N-[3-(2'-cis-methylcyclohexyloxy)carbonyloxirane-2-carbonyl]-L-phenylalanine ethyl ester], the figure is 1.21 γ.

Turning to `O=C(CNC(=O)C1OC1C(=O)OC1CCCC1Cl)OCc1ccccc1` (stereo not drawn) [EP-213, N-[3-(2'-cis-chlorocyclopentyloxy)-carbonyloxirane-2-carbonyl]-glycine benzyl ester], on papain, the “ID50 (amount of inhibitor for 50% inhibition)” value is on record as 6.75 γ.

`CC(C)C[C@H](NC(=O)C1OC1C(=O)OC1CCCC1Br)C(=O)OCc1ccccc1` (stereo partly drawn) [EP-214, N-[3-(2'-trans-bromocyclopentyloxy)-carbonyloxirane-2-carbonyl]-L-leucine benzyl ester]: the “ID50 (amount of inhibitor for 50% inhibition)” value at papain is reported as 0.13 γ.

On to `COC(=O)[C@H](C)NC(=O)C1OC1C(=O)O[C@H]1CC[C@H](C)CC1` (stereo partly drawn) [EP-215, N-[3-(4'-trans-methylcyclohexyloxy)-carbonyloxirane-2-carbonyl]-L-alanine methyl ester], for which the “ID50 (amount of inhibitor for 50% inhibition)” value at papain is 3.55 γ.

`CCCCOC(=O)[C@H](CC(C)C)NC(=O)C1OC1C(=O)OCc1ccco1` (stereo partly drawn) [EP-217, N-[3-furfuryloxycarbonyloxirane-2-carbonyl]-L-leucine n-butyl ester]: on papain, the “ID50 (amount of inhibitor for 50% inhibition)” value is 0.25 γ. As to `CC(C)(C)OC(=O)[C@H](Cc1ccccc1)NC(=O)C1OC1C(=O)OCC1CCCO1` (stereo partly drawn) [EP-218, N-[3-tetrahydrofurfuryloxycarbonyloxirane-2-carbonyl]-L-phenylalanine t-butyl ester], the “ID50 (amount of inhibitor for 50% inhibition)” value on papain is recorded as 1.65 γ. Regarding `CCOC(=O)[C@@H](NC(=O)C1OC1C(=O)OCc1cccc2ccccc12)C(C)C` (stereo partly drawn) [EP-219], the “ID50 (amount of inhibitor for 50% inhibition)” value at papain is 2.12 γ.
